From PubChem BioAssay AID202 (DTP/NCI, 2004) come the findings set out here.

The test has as its system HT29 xenograft, nude mice, s.c., tumor weight T/C%. Put plainly: NCI In Vivo Anticancer Drug Screen. Data for tumor model HT29;CX-1 Human Adenocarcinoma (MER+) (subcutaneous) in NU/NU Swiss (nude) mice. The following applies: endpoint: optimum tumor weight change, higher = larger tumour. Here is the method: The antitumor activity of compounds was measured in mice bearing transplantable tumors. Survival or tumor size were measured and the results are expressed as the measurement made in the treated group (T) divided by the measurement made in the vehicle treated control group (C). The tumor model used in this assay is HT29;CX-1 Human Adenocarcinoma (MER+) (subcutaneous) in NU/NU Swiss (nude) mice

Setting [1] is: dose: 200.0 mg/kg/injection, schedule: Q04DX003 (ip), vehicle: saline.
Where [2] appears, read: dose: 100.0 mg/kg/injection, schedule: Q04DX003 (ip), vehicle: Klucel (hydroxypropylcellulose) (HPC).
The mark [3] stands for this setting: dose: 25.0 mg/kg/injection, schedule: Q04DX003 (ip), vehicle: Klucel (hydroxypropylcellulose) (HPC).

“And” between values parts separate entries of the source, which are not always exact repeats. Equal values may be shown once.

What is called T/C is the result in the treated group divided by that in the control group, in per cent. `CN(CO)c1nc(N(C)CO)nc(N(C)CO)n1`: the T/C reads like this: (dose: 25.0 mg/kg/injection, schedule: Q01DX005 (ip), vehicle: Klucel (hydroxypropylcellulose) (HPC)) 75 % of control; (dose: 25.0 mg/kg/injection, schedule: Q04DX005 (ip), vehicle: Klucel (hydroxypropylcellulose) (HPC)) 62 % of control; (dose: 25.0 mg/kg/injection, schedule: Q07DX005 (ip), vehicle: Klucel (hydroxypropylcellulose) (HPC)) 93 % of control; (dose: 50.0 mg/kg/injection, schedule: Q01DX005 (ip), vehicle: Klucel (hydroxypropylcellulose) (HPC)) 102 % of control and 123 % of control; (dose: 50.0 mg/kg/injection, schedule: Q04DX005 (ip), vehicle: Klucel (hydroxypropylcellulose) (HPC)) 119 % of control and 120 % of control; (dose: 50.0 mg/kg/injection, schedule: Q07DX005 (ip), vehicle: Klucel (hydroxypropylcellulose) (HPC)) 99 % of control. Also, the T/C reads like this: (dose: 100.0 mg/kg/injection, schedule: Q04DX003 (ip), vehicle: suspension in saline) 75 % of control; (dose: 100.0 mg/kg/injection, schedule: Q04DX005 (ip), vehicle: Klucel (hydroxypropylcellulose) (HPC)) 99 % of control and 116 % of control; (dose: 100.0 mg/kg/injection, schedule: Q07DX005 (ip), vehicle: Klucel (hydroxypropylcellulose) (HPC)) 48 % of control; (dose: 200.0 mg/kg/injection, schedule: Q07DX005 (ip), vehicle: Klucel (hydroxypropylcellulose) (HPC)) 47 % of control and 58 % of control.

Take `CSc1cc(=O)n2c3ccccc3c3ccnc1c32`: the T/C is 101 % of control (dose: 20.0 mg/kg/injection, schedule: Q04DX003 (ip), vehicle: saline with Tween-80); 89 % of control and 99 % of control (dose: 160.0 mg/kg/injection, schedule: Q04DX003 (ip), vehicle: saline with Tween-80); 82 % of control (dose: 320.0 mg/kg/injection, schedule: Q04DX003 (ip), vehicle: saline with Tween-80); 81 % of control (dose: 640.0 mg/kg/injection, schedule: Q04DX003 (ip), vehicle: saline with Tween-80).

Regarding `NC(=S)N/N=C/c1ccc(O)cn1`, the T/C was 63 % of control (dose: 150.0 mg/kg/injection, schedule: Q04DX003 (ip), vehicle: saline with Tween-80); 70 % of control (dose: 300.0 mg/kg/injection, schedule: Q04DX003 (ip), vehicle: saline with Tween-80); 87 % of control (dose: 600.0 mg/kg/injection, schedule: Q04DX003 (ip), vehicle: saline with Tween-80).

For the compound `CNC=O`, the T/C under setting [1] was 168 % of control; the T/C (dose: 400.0 mg/kg/injection, schedule: Q04DX003 (ip), vehicle: saline) was 78 % of control; the T/C (dose: 800.0 mg/kg/injection, schedule: Q04DX003 (ip), vehicle: saline) was 104 % of control.

With `O=c1[nH]cnc2n[nH]nc12`, the T/C is 67 % of control under setting [2]; 67 % of control (dose: 200.0 mg/kg/injection, schedule: Q04DX003 (ip), vehicle: Klucel (hydroxypropylcellulose) (HPC)); 31 % of control (dose: 400.0 mg/kg/injection, schedule: Q04DX003 (ip), vehicle: Klucel (hydroxypropylcellulose) (HPC)).

Consider `CCN(CC)CCCC(C)Nc1c2ccc(Cl)cc2nc2ccc(OC)cc12` (stereo unspecified), for which the T/C reads like this: (dose: 50.0 mg/kg/injection, schedule: Q04DX003 (ip), vehicle: saline with Tween-80) 89 % of control; (dose: 200.0 mg/kg/injection, schedule: Q04DX003 (ip), vehicle: saline with Tween-80) 91 % of control.

Consider `CC(=O)OCC(=O)[C@@]12OC(C)(C)O[C@@H]1C[C@H]1[C@@H]3CC(C=O)=C4C=C(OCCCl)CC[C@]4(C)[C@@]3(F)[C@@H](O)C[C@@]12C`, for which the T/C under setting [3] is 52 % of control and 59 % of control.

Regarding `CCOC(=O)C1C2OC(=O)C(C(=O)C2CN(CCCl)CCCl)C1C1CC=C(CC2=CCC(C3C4C(=O)OC(C(CN(CCCl)CCCl)C4=O)C3C(=O)OCC)CC2)CC1` (stereo unspecified), the T/C runs as follows: under setting [3], 91 % of control; (dose: 50.0 mg/kg/injection, schedule: Q04DX003 (ip), vehicle: Klucel (hydroxypropylcellulose) (HPC)) 66 % of control; under setting [2], 69 % of control.

As to `C=CC(=O)NCNC(=O)C=C`, the T/C is 78 % of control (dose: 50.0 mg/kg/injection, schedule: Q04DX003 (ip), vehicle: saline); 65 % of control (dose: 100.0 mg/kg/injection, schedule: Q04DX003 (ip), vehicle: saline); 60 % of control under setting [1].

Take `O=Cc1ccc(O)c(O)c1`: the T/C (dose: 100.0 mg/kg/injection, schedule: Q04DX003 (ip), vehicle: saline with Tween-80) is 94 % of control.

As to `COC1C(O)CC(OC2CC(OC3CC(O[C@@H]4C(=O)c5c(cc6cc(OC7CC(OC8CC(O)C(O)C(C)O8)C(O)C(C)O7)c(C)c(O)c6c5O)C[C@H]4[C@H](OC)C(=O)[C@@H](O)[C@@H](C)O)OC(C)C3O)OC(C)C2O)OC1C` (stereo partly specified), the T/C (dose: 1.5 mg/kg/injection, schedule: Q04DX003 (ip), vehicle: saline) is 52 % of control.

`OCC1OC(n2cnc3cncnc32)C(O)C1O` (stereo unspecified): the T/C (dose: 12.5 mg/kg/injection, schedule: Q04DX003 (ip), vehicle: saline) was 49 % of control and the T/C (dose: 25.0 mg/kg/injection, schedule: Q04DX003 (ip), vehicle: saline) is 48 % of control.
